In brackets after ≈: the same amount, converted by molar mass. Counter-ions that a name gives are not always drawn. Like-named read-outs stand apart in the source and are kept apart here.
Key:
Assay type in all cases: cell-based
[1] = tested on: S. aureus ATCC 6538; test: MIC by broth microdilution, S. aureus; conditions: Staphylococcus aureus
How it was run: (§1)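 Overnight cultures diluted to ~5×10^5 cfu/mL final; S. aureus in TSB and CAMHB, E. coli in LB and CAMHB, zinc sulphate to 50 μM final as required; two-fold serial dilutions. MIC = lowest concentration with no growth by OD600 after 24 h, 37° C, 200 rpm. MBC by Miles-Misra drop-plate viability count.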

[2] = tested on: S. uberis ATCC 19436; test: MIC by broth microdilution, S. uberis; conditions: Streptococcus uberis
How it was run: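 Streptococcus uberis ATCC 19436 was tested in Todd Hewitt Broth by broth microdilution in 96-well flat bottom plates, in biological triplicate. Overnight cells were diluted to OD600 of approximately 0.025, giving about 5×10^5 cfu/mL in the wells. Compounds were serially diluted two-fold to 200 μl, incubated 24 h at 37° C. and 200 rpm, and the MIC was taken from OD600.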

[3] = tested on: E. coli ATCC 10536; test: MBC by Miles-Misra drop-plate method, E. coli; conditions: Escherichia coli
Protocol: (§2) Antibacterial susceptibility testing was performed in triplicate (biological) by measuring minimum inhibitory concentrations (MICs) by broth microdilution in 96-well flat bottom microtiter plates (ThermoFisher Scientific, New Zealand). S. uberis ATCC 19436, S. aureus ATCC 6538, or E. coli ATCC 10596 cells grown overnight were diluted to an OD600 of approximately 0.025, so that the final concentration of cells in the MIC assay was approximately 5×10^5 cfu/mL in media as follows: S. uberis; Todd Hewitt Broth (THB), S. aureus; Tryptic Soy Broth (TSB) and Cation Adjusted Muller Hinton Broth (CAMHB), and E. coli; Lysogeny Borth (LB) and CAMHB, before being dispensed into microtiter wells. As required additional sterile Zinc Sulphate (Heptahydrate) was supplemented into the media, so the final concentration was 50 μM. Test compounds were added to starting wells and two-fold serial dilutions were undertaken to generate a range of inhibitor concentrations at a final volume of 200 μl. Media and test compound-free (untreated) controls were included in each microtiter plate in triplicate. After 24 h incubation at 37° C. and 200 rpm, the OD600 of wells were read using a Varioskan Flash plate reader (ThermoFisher Scientific, New Zealand). The MIC was reported as the lowest concentration of the test compound for which no growth occurred, as determined by OD600 readings. The minimum bactericidal concentration (MBC) was determined using the Miles-Misra drop-plate method to measure the viability of cells in response to test compound challenge.

[4] = tested on: E. coli ATCC 10596; test: MIC by broth microdilution, E. coli; conditions: Escherichia coli
How it was run: as §1

[5] = tested on: S. aureus ATCC 6538; test: MBC by Miles-Misra drop-plate method, S. aureus; conditions: Staphylococcus aureus
Protocol: as §2

[6] = tested on: S. uberis ATCC 19436; test: MBC by Miles-Misra drop-plate method, S. uberis; conditions: Streptococcus uberis
Protocol: as §2

[7] = ATCC6538, No Zinc, read-out: S. aureus ATCC 6538 MIC
[8] = ATCC6538, Zinc (50 μM), read-out: S. aureus ATCC 6538 MIC
[9] = ATCC19436, No Zinc, read-out: S. uberis ATCC 19436 MIC
[10] = ATCC19436, Zinc (50 μM), read-out: S. uberis ATCC 19436 MIC
[11] = ATCC10536, read-out: E. coli ATCC 10536 MBC, No Zinc
[12] = ATCC10536, read-out: E. coli ATCC 10536 MBC, Zinc (50 μM)
[13] = ATCC 10536 / ATCC 10596, No Zinc, read-out: E. coli ATCC 10536 MIC
[14] = ATCC 10536 / ATCC 10596, Zinc (50 μM), read-out: E. coli ATCC 10536 MIC
[15] = ATCC6538, read-out: S. aureus ATCC 6538 MBC, No Zinc
[16] = ATCC6538, read-out: S. aureus ATCC 6538 MBC, Zinc (50 μM)
[17] = ATCC19436, read-out: S. uberis ATCC 19436 MBC, No Zinc
[18] = ATCC19436, read-out: S. uberis ATCC 19436 MBC, Zinc (50 μM)
[19] = ATCC10536, No Zinc, read-out: E. coli ATCC 10536 MBC
[20] = ATCC10536, Zinc (50 μM), read-out: E. coli ATCC 10536 MBC
[21] = ATCC6538, No Zinc, read-out: S. aureus ATCC 6538 MBC
[22] = ATCC6538, Zinc (50 μM), read-out: S. aureus ATCC 6538 MBC
[23] = ATCC19436, No Zinc, read-out: S. uberis ATCC 19436 MBC
[24] = ATCC19436, Zinc (50 μM), read-out: S. uberis ATCC 19436 MBC

Compound | MIC [1, 7] [µg/mL] | MIC [1, 8] [µg/mL] | MIC [2, 9] [µg/mL] | MIC [2, 10] [µg/mL] | MIC [4, 13] [µg/mL] | MIC [4, 14] [µg/mL] | MBC [3, 19] [µg/mL] | MBC [3, 20] [µg/mL] | MBC [5, 21] [µg/mL] | MBC [5, 22] [µg/mL] | MBC [6, 23] [µg/mL] | MBC [6, 24] [µg/mL] | also measured
O=C(N/N=C/c1ccc2cccc(NS(=O)(=O)c3ccc(C(F)(F)F)cc3)c2n1)C1CCCNC1 (mixture of isomers) [ZDR124, (E/Z)—N-(2-((2-(Piperidine-3-carbonyl)hydrazineylidene)methyl)quinolin-8-yl)-4-(trifluoromethyl)benzenesulfonamide trifluoroacetate] | 16 | 16 | 32 | 16 | 128 | 32 |  |  |  |  |  |  | MBC [3, 11]: 128 µg/mL; MBC [3, 12]: 32 µg/mL; MBC [5, 15]: > 256 µg/mL; MBC [5, 16]: > 256 µg/mL; MBC [6, 17]: 16 µg/mL; MBC [6, 18]: 16 µg/mL
CN(C)Cc1ccc2cccc(NS(=O)(=O)c3ccc(C(F)(F)F)cc3)c2n1.Cl [ZDR022-HCl, N-(2-((Dimethylamino)methyl)quinolin-8-yl)-4-(trifluoromethyl)-benzenesulfonamide HCl] | 64 | 4 | 256 | 0.125 | > 256 | > 256 | > 256 | > 256 | 128 | 256 | > 256 | 0.125 | 
CN(C)CCCNCc1ccc2cccc(NS(=O)(=O)c3ccc(C(F)(F)F)cc3)c2n1 [ZDR090, N-(2-(((3-(Dimethylamino)propyl)amino)methyl)quinolin-8-yl)-4-(trifluoromethyl)benzenesulfonamide di-trifluoroacetate] |  |  |  |  |  |  |  |  |  |  |  |  | MIC ([1]; ATCC6538, read-out: S. aureus ATCC 6538 MIC, No Zinc): 16 µg/mL (≈ 34.3 µM); MIC ([1]; ATCC6538, read-out: S. aureus ATCC 6538 MIC, Zinc (50 μM)): 16 µg/mL (≈ 34.3 µM); MIC ([2]; ATCC19436, read-out: S. uberis ATCC 19436 MIC, No Zinc): 4 µg/mL (≈ 8.57 µM); MIC ([2]; ATCC19436, read-out: S. uberis ATCC 19436 MIC, Zinc (50 μM)): 0.5 µg/mL (≈ 1.07 µM); MBC [3, 11]: 16 µg/mL (≈ 34.3 µM); MBC [3, 12]: 16 µg/mL (≈ 34.3 µM); MIC ([4]; ATCC 10536 / ATCC 10596, read-out: E. coli ATCC 10536 MIC, No Zinc): 16 µg/mL (≈ 34.3 µM); MIC ([4]; ATCC 10536 / ATCC 10596, read-out: E. coli ATCC 10536 MIC, Zinc (50 μM)): 16 µg/mL (≈ 34.3 µM); MBC [5, 15]: 16 µg/mL (≈ 34.3 µM); MBC [5, 16]: 32 µg/mL (≈ 68.6 µM); MBC [6, 17]: 8 µg/mL (≈ 17.1 µM); MBC [6, 18]: 0.5 µg/mL (≈ 1.07 µM)
O=S(=O)(Nc1cccc2ccc(CNCCCO)nc12)c1ccc(C(F)(F)F)cc1 [ZDR091, N-(2-(((3-Hydroxypropyl)amino)methyl)quinolin-8-yl)-4-(trifluoromethyl)benzenesulfonamide] | 64 (≈ 146 µM) | 32 (≈ 72.8 µM) | 32 (≈ 72.8 µM) | 0.125 (≈ 0.284 µM) | 256 (≈ 583 µM) | 256 (≈ 583 µM) | 256 (≈ 583 µM) | 128 (≈ 291 µM) | > 256 | 128 (≈ 291 µM) | 16 (≈ 36.4 µM) | 0.5 (≈ 1.14 µM) | 
O=S(=O)(Nc1cccc2ccc(CNC(CO)CO)nc12)c1ccc(C(F)(F)F)cc1 [ZDR092, N-(2-(((1,3-Dihydroxypropan-2-yl)amino)methyl)quinolin-8-yl)-4-(trifluoromethyl)benzenesulfonamide] | 32 (≈ 70.3 µM) | 32 (≈ 70.3 µM) | 64 (≈ 141 µM) | 16 (≈ 35.1 µM) | > 256 | > 256 | 256 (≈ 562 µM) | > 256 | 256 (≈ 562 µM) | 32 (≈ 70.3 µM) | 64 (≈ 141 µM) | 8 (≈ 17.6 µM) | 
O=S(=O)(Nc1cccc2ccc(CNCCc3ccccn3)nc12)c1ccc(C(F)(F)F)cc1 [ZDR095, N-(2-(((2-(Pyridin-2-yl)ethyl)amino)methyl)quinolin-8-yl)-4-(trifluoromethyl)benzenesulfonamide] | 64 (≈ 132 µM) | 8 (≈ 16.4 µM) | > 256 | 0.125 (≈ 0.257 µM) | 128 (≈ 263 µM) | > 256 | 128 (≈ 263 µM) | 256 (≈ 526 µM) | > 128 | > 256 | > 256 | 1 (≈ 2.06 µM) | 
O=S(=O)(Nc1cccc2ccc(CNC(CO)(CO)CO)nc12)c1ccc(C(F)(F)F)cc1 [ZDR102, N-(2-(((1,3-Dihydroxy-2-(hydroxymethyl)propan-2-yl)amino)methyl)quinolin-8-yl)-4-(trifluoromethyl)benzenesulfonamide] | 32 (≈ 65.9 µM) | 16 (≈ 33 µM) | 32 (≈ 65.9 µM) | 16 (≈ 33 µM) | 256 (≈ 527 µM) | 64 (≈ 132 µM) | 256 (≈ 527 µM) | > 256 | 128 (≈ 264 µM) | 32 (≈ 65.9 µM) | 32 (≈ 65.9 µM) | 16 (≈ 33 µM) | 
O=S(=O)(Nc1cccc2ccc(CNCCN3CCCCC3)nc12)c1ccc(C(F)(F)F)cc1 [ZDR111, N-(2-(((2-(Piperidin-1-yl)ethyl)amino)methyl)quinolin-8-yl)-4-(trifluoromethyl)benzenesulfonamide] | 16 (≈ 32.5 µM) | 16 (≈ 32.5 µM) | 8 (≈ 16.2 µM) | 0.5 (≈ 1.02 µM) | 64 (≈ 130 µM) | > 256 | > 256 | > 256 | 16 (≈ 32.5 µM) | 16 (≈ 32.5 µM) | 8 (≈ 16.2 µM) | 1 (≈ 2.03 µM) | 
O=S(=O)(Nc1cccc2ccc(CNCCN3CCOCC3)nc12)c1ccc(C(F)(F)F)cc1 [ZDR112, N-(2-(((2-Morpholinoethyl)amino)methyl)quinolin-8-yl)-4-(trifluoromethyl)benzenesulfonamide] | 16 (≈ 32.4 µM) | 32 (≈ 64.7 µM) | 64 (≈ 129 µM) | 1 (≈ 2.02 µM) | > 256 | > 256 | 128 (≈ 259 µM) | > 256 | > 256 | 256 (≈ 518 µM) | 64 (≈ 129 µM) | 2 (≈ 4.04 µM) | 

Reference: US11691949B2, “Quinoline sulfonamide compounds and their use as antibacterial agents” (OTAGO INNOVATION LIMITED, priority 2017, dated 2023)
